# Bridge positions count the residues as written; N and C are the ends. Peptide text beside a SMILES is read from it.
# Columns and labels:
# [1] = target: cJun bZIP (Homo sapiens, UniProt P05412, S292Y); test: CD spectra and thermal denaturation of peptide/cJun heterodimers; settings: peptide (5 μM)/c-Jun (5 μM) heterodimer; Table 6
# [2] = CD spectra and thermal denaturation of peptide-only samples (helicity, homodimer Tm); settings: for change in fraction helicity from lactamisation: cyclised vs its linear form
# [3] = target: T1, cJun/TRE DNA interaction (Homo sapiens, UniProt P05412, S292Y); test: CD cJun/TRE DNA antagonism (shift of TRE DNA peak at ~281 nm, Hill fit); type: biochemical
# T1 construct: The same 60 amino acid c-Jun bZIP construct was used for all experiments; His-SUMO (N, cleaved yes); made in house; host or cells: E. coli
# Description: Briefly, in TBS the coding region for the essential gene dihydrofolate reductase (DHFR) is mutated to incorporate TRE sites so that introduction of c-Jun to this gene inside E. coli produces a transcriptional block that abrogates cell proliferation. The TRE site-bound c-Jun molecules sterically prevent RNA polymerase transcribing the essential gene and this can only be restored upon introduction of an effective c-Jun/TRE antagonist. Consequently, the survival of a particular cell is controlled by the ability of a peptide library member to remove the c-Jun transcriptional block and therefore to restore DHFR activity. TBS thus facilitates the identification of therapeutically valuable sequences. Further details for the TBS assay are provided in WO2020128015, which is incorporated herein by reference in its entirety. […] The TRE-DNA construct produces a positive CD peak at ˜281 nm, which decreases in intensity upon c-Jun binding. […] This method allows for the calculation of an IC50 value by fitting the titration data to a Hill equation. In some embodiments, the c-Jun antagonist is able to inhibit the DNA-binding activity of c-Jun within 10-fold of the ability of HingeW to inhibit the DNA-binding activity of c-Jun (e.g. the c-Jun antagonist has a reduced ability to inhibit the DNA-binding activity of c-Jun that is within 10-fold of that determined for HingeW). In some embodiments, the c-Jun antagonist is able to inhibit the DNA-binding activity of c-Jun within 9-fold, preferably within 8-fold, more preferably within 7-fold, even more preferably within 6-fold, yet more preferably within 5-fold of the ability of HingeW to inhibit the DNA-binding activity of c-Jun. The ability of the c-Jun antagonist and HingeW to inhibit the DNA-binding activity may be measured using the TBS assay (e.g. by quantifying the number of colonies) or by determining the IC50 using a circular dichroism assay described herein. Optionally, the c-Jun antagonist may have this activity when cross-linked. Methods for cross-linking peptides are described in more detail below.
# Therefore, the acidic domain was the initial focus for optimisation. 1 was iteratively truncated (2-6) to investigate the effect on c-Jun binding and c-Jun/TRE DNA antagonism. […] Thermal denaturation experiments were then used to determine the Tm of peptide-c-Jun heterodimers, which was used as an approximate measure of target engagement. CD was also used to investigate the ability of the functional activity of peptides in antagonising the c-Jun/TRE DNA interaction. The TRE-DNA construct used produces a positive CD peak at ˜281 nm (no c-Jun absorbance at this wavelength allows for direct measurement of DNA upon binding) which decreases in intensity upon c-Jun binding. […] This allowed for the calculation of an IC50 value by fitting the titration data to a Hill equation. […] The same 60 amino acid c-Jun bZIP construct was used for all experiments, regardless of antagonist peptide length.
# [4] = target: cJun (Homo sapiens, UniProt P05412, S292Y); test: Isothermal titration calorimetry, Example 2 (PEAQ-ITC); type: binding; design: The same 60 amino acid c-Jun bZIP construct was used for all experiments; His-SUMO (N, cleaved yes); made in house; host or cells: E. coli; settings: ITC; for Stoichiometry, n: c-Jun-peptide interaction
# Description: 2 μL injections of antagonist peptide at 25-200 μM were injected into the cell containing cJun at 2.5-20 μM. Software was used to record and analyse the heat change upon addition. Control experiments involved the injection of the antagonist peptide sample into the cell containing ITC buffer alone to determine the heat of dilution which was subtracted. The resulting binding data were fit to a one site binding model to extract the enthalpy change of binding (ΔH) and the equilibrium binding constant (KD), from which the free energy change of binding (ΔG) and the entropy change of binding (ΔS) was calculated (Wiseman et al., 1989). Thermodynamic parameters are presented as an average of two independent experiments with errors given as one standard deviation.
compound,measurement,setting,value
CC[C@H](C)[C@H](NC(=O)[C@H](CCC(=O)O)NC(=O)[C@H](CCCCN)NC(=O)[C@H](CCCNC(=N)N)NC(=O)[C@H](CC(C)C)NC(=O)[C@H](C)NC(=O)[C@H](Cc1ccc(O)cc1)NC(=O)[C@H](CC(N)=O)NC(=O)[C@H](CCCNC(=N)N)NC(=O)[C@H](CCC(=O)O)NC(=O)[C@H](CCC(=O)O)NC(=O)[C@H](CC(C)C)NC(=O)[C@H](CCC(N)=O)NC(=O)[C@H](CCC(=O)O)NC(=O)[C@@H](NC(=O)[C@H](CCC(=O)O)NC(=O)[C@H](CCC(=O)O)NC(=O)[C@H](CCC(=O)O)NC(=O)[C@H](CC(C)C)NC(=O)[C@@H](NC(=O)[C@H](CC(=O)O)NC(=O)[C@H](CCC(=O)O)NC(=O)[C@H](CCC(=O)O)NC(=O)[C@@H](NC(=O)[C@@H](NC(=O)[C@H](CC(C)C)NC(=O)[C@@H]1CC(=O)NCCCC[C@H](NC(C)=O)C(=O)N[C@@H](CCC(=O)O)C(=O)N[C@@H](C)C(=O)N[C@@H](CCC(=O)O)C(=O)N1)C(C)C)C(C)C)C(C)C)[C@@H](C)CC)C(=O)N[C@@H](CCCCN)C(=O)N[C@@H](CC(=O)O)C(=O)N[C@@H](CC(C)C)C(=O)N[C@@H](CCC(N)=O)C(=O)N[C@@H](CC(=O)O)C(=O)N[C@@H](CCC(N)=O)C(N)=O [Peptide 13] (Ac-KEAEDLVVEEDVLEEEIEQLEERNYALRKEIKDLQDQ-NH2; lactam 1-5),Tm (° C.),[1],58.5 ± 1.0 °C
same,change in fraction helicity from lactamisation,[2],~1%
CC[C@H](C)[C@H](NC(=O)[C@H](CCC(=O)O)NC(=O)[C@@H]1CC(=O)NCCCC[C@H](NC(=O)[C@H](CC(N)=O)NC(=O)[C@H](CCCCN)NC(=O)[C@H](CCC(=O)O)NC(=O)[C@H](CCC(=O)O)NC(=O)[C@H](CC(C)C)NC(=O)[C@H](CCC(N)=O)NC(=O)[C@H](CCC(=O)O)NC(=O)[C@@H](NC(=O)[C@H](CCC(=O)O)NC(=O)[C@H](CCC(=O)O)NC(=O)[C@H](CCC(=O)O)NC(=O)[C@H](CC(C)C)NC(=O)[C@@H](NC(=O)[C@H](CC(=O)O)NC(=O)[C@H](CCC(=O)O)NC(=O)[C@H](CCC(=O)O)NC(=O)[C@@H](NC(=O)[C@@H](NC(=O)[C@H](CC(C)C)NC(C)=O)C(C)C)C(C)C)C(C)C)[C@@H](C)CC)C(=O)N[C@@H](C)C(=O)N[C@@H](CC(C)C)C(=O)N[C@@H](CCCCN)C(=O)N1)C(=O)N[C@@H](CCC(=O)O)C(=O)N[C@@H](CC(=O)O)C(=O)N[C@@H](CC(C)C)C(=O)N[C@@H](CCC(N)=O)C(=O)N[C@@H](CCCCN)C(=O)N[C@@H](CCC(N)=O)C(=O)N[C@@H](CC(C)C)C(=O)N[C@@H](CCC(=O)O)C(=O)N[C@@H](CCCCN)C(=O)N[C@@H](CC(C)C)C(=O)N[C@@H](Cc1ccc(O)cc1)C(N)=O [Peptide 8],fold increase in antagonism relative to the linear counterpart 5,[3]; ratio of CD IC50,1.8 fold
same,Tm (° C.),[1],67.2 ± 0.8 °C
Ac-LVVEEDVLEEEIEQLEERNYALRKEIEDLQKQLEKL-NH2 [Peptide 5],fold better antagonism than 6,[3]; ratio of CD IC50,1.7 fold
same,fold reduction in antagonism relative to 3,[3]; ratio of CD IC50,2.3 fold
same,fold reduction in antagonism relative to 4,[3]; ratio of CD IC50,1.7 fold
same,fold reduction in cJun/TRE antagonism relative to 1,[3]; ratio of CD IC50,5.8 fold
same,Tm (° C.),[1],62.8 ± 1.0 °C
RIKAERKRMRNRIAASKCRKRKLERIARLEEKVKTLKAQNYELASTANMLREQVAQLGAP [cJun],Fraction helicity at 20° C. (CD),[2]; peptide alone,14.0%
same,Tm (° C.) (CD),[2]; peptide alone (homodimer),39.8 °C
Ac-EAEELVVEEDVLEEEIEQLEERNYALRKEIEDL-NH2 [Peptide 25],fold reduction in antagonism relative to 4,[3]; ratio of CD IC50,26.7 fold
same,fold reduction in antagonism relative to 11,[3]; ratio of CD IC50,14.8 fold
same,Tm (° C.),[1],44.8 ± 1.2 °C
Ac-LEKEAEELVVEEDVLEEEIEQLEERNYALRKEIEDLQKQLEKL-NH2 [Peptide 3],fold reduction in antagonism relative to 2,[3]; ratio of CD IC50,2 fold
same,Tm (° C.),[1],67.9 ± 0.9 °C
CC[C@H](C)[C@H](NC(=O)[C@H](CCC(=O)O)NC(=O)[C@H](CCCCN)NC(=O)[C@H](CCCNC(=N)N)NC(=O)[C@H](CC(C)C)NC(=O)[C@H](C)NC(=O)[C@H](Cc1ccc(O)cc1)NC(=O)[C@H](CC(N)=O)NC(=O)[C@H](CCCNC(=N)N)NC(=O)[C@H](CCC(=O)O)NC(=O)[C@H](CCC(=O)O)NC(=O)[C@H](CC(C)C)NC(=O)[C@H](CCC(N)=O)NC(=O)[C@H](CCC(=O)O)NC(=O)[C@@H](NC(=O)[C@H](CCC(=O)O)NC(=O)[C@@H]1CC(=O)NCCCC[C@H](NC(=O)[C@H](CCC(=O)O)NC(=O)[C@H](CCC(=O)O)NC(=O)[C@@H](NC(=O)[C@@H](NC(=O)[C@H](CC(C)C)NC(=O)[C@H](CCC(=O)O)NC(=O)[C@H](CCC(=O)O)NC(=O)[C@H](C)NC(=O)[C@H](CCC(=O)O)NC(C)=O)C(C)C)C(C)C)C(=O)N[C@@H](C(C)C)C(=O)N[C@@H](CC(C)C)C(=O)N[C@@H](CCC(=O)O)C(=O)N1)[C@@H](C)CC)C(=O)N[C@@H](CCC(=O)O)C(=O)N[C@@H](CC(=O)O)C(=O)N[C@@H](CC(C)C)C(=O)N[C@@H](CCC(N)=O)C(=O)N[C@@H](CCCCN)C(=O)N[C@@H](CCC(N)=O)C(N)=O [Peptide 17] (Ac-EAEELVVEEKVLEDEIEQLEERNYALRKEIEDLQKQ-NH2; lactam 10-14),effect of lactamisation on antagonism,[3]; P=0.24,did not lead to a significant increase in antagonism
same,Tm (° C.),[1],64.0 ± 0.8 °C
same,change in fraction helicity from lactamisation,[2],~5%
same,ΔG,[4],-40.86 ± 0.28 kJ/mol
same,ΔH,[4],-59.00 ± 1.68 kJ/mol
same,−TΔS,[4],18.14 ± 1.70 kJ/mol
same,"Stoichiometry, n",[4],1.20 ± 0.02
CC[C@H](C)[C@H](NC(=O)[C@H](CCC(=O)O)NC(=O)[C@@H]1CC(=O)NCCCC[C@H](NC(=O)[C@H](CC(N)=O)NC(=O)[C@H](CCCCN)NC(=O)[C@H](CCC(=O)O)NC(=O)[C@H](CCC(=O)O)NC(=O)[C@H](CC(C)C)NC(=O)[C@H](CCC(N)=O)NC(=O)[C@H](CCC(=O)O)NC(=O)[C@@H](NC(=O)[C@H](CCC(=O)O)NC(=O)[C@H](CCC(=O)O)NC(=O)[C@H](CCC(=O)O)NC(=O)[C@H](CC(C)C)NC(=O)[C@@H](NC(=O)[C@H](CC(=O)O)NC(=O)[C@H](CCC(=O)O)NC(=O)[C@H](CCC(=O)O)NC(=O)[C@@H](NC(=O)[C@@H](NC(=O)[C@H](CC(C)C)NC(=O)[C@H](CCC(=O)O)NC(=O)[C@H](CCC(=O)O)NC(=O)[C@H](C)NC(=O)[C@H](CCC(=O)O)NC(C)=O)C(C)C)C(C)C)C(C)C)[C@@H](C)CC)C(=O)N[C@@H](C)C(=O)N[C@@H](CC(C)C)C(=O)N[C@@H](CCCCN)C(=O)N1)C(=O)N[C@@H](CCC(=O)O)C(=O)N[C@@H](CC(=O)O)C(=O)N[C@@H](CC(C)C)C(=O)N[C@@H](Cc1ccc(O)cc1)C(N)=O [Peptide 27] (Ac-EAEELVVEEDVLEEEIEQLEEKNKALKDEIEDLY-NH2; lactam 24-28),fold reduction in cJun/TRE antagonism relative to 1,[3]; ratio of CD IC50,8.8 fold
same,Tm (° C.),[1],52.5 ± 1.4 °C
Ac-EAEELVVEEDVLEEEIEQLEERNYALRKEIEDLQKQ-NH2 [Peptide 11],fold reduction in antagonism relative to 4,[3]; ratio of CD IC50,1.8 fold
same,Tm (° C.),[1],57.1 ± 0.9 °C
same,ΔG,[4],-34.10 ± 0.41 kJ/mol
same,ΔH,[4],-25.06 ± 3.40 kJ/mol
same,−TΔS,[4],-8.95 ± 3.42 kJ/mol
same,"Stoichiometry, n",[4],0.95 ± 0.09
